Here are results for seven molecules from ChEMBL document CHEMBL1201862, “PubChem BioAssay data set” (2004).

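Grown in 96-well plates, cells were treated for 48 hours with each compound at five concentrations. Insufficient inhibition: endpoint recorded as highest concentration tested. GI50 marks 50% less growth.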 The source made the active and inactive calls. No stated cut-off is given here; in the data, active = GI50 up to about 1.1 µM and inactive = higher.

Among the test systems are HCT-15; SW-620; A498; SF-295; CCRF-CEM; HT-29; Malme-3M; Hs-578T; HOP-62; HL-60; T47D; OVCAR-3; 786-0; SR; LOX IMVI; SN12C; EKVX; HOP-92; OVCAR-8; MOLT-4.
Test in all cases: NCI anticancer screen, dose series, 48 h

As to `COC(=O)/C=C\C(C#N)(C#N)/N=C/c1ccsc1`, the GI50 was 1.55 µM in the assay with HCT-15; 1.28 µM (inactive) in the assay on SW-620; 18.8 µM (inactive) with A498; 13.3 µM (inactive) in the assay with SF-295; 0.216 µM (active) in the assay with CCRF-CEM; 4.18 µM (inactive) in the assay with HT-29. Also, the GI50 in the assay with Malme-3M is 1.51 µM (inactive); in the assay on Hs-578T, 10.6 µM (inactive); in the assay on HOP-62, 16.9 µM (inactive); in the assay with HL-60, 0.429 µM (active); in the assay on T47D, 1.86 µM (inactive); with OVCAR-3, 1.86 µM (inactive). Further, the GI50 in the assay with 786-0 was 1.37 µM (inactive); in the assay with SR it was 0.214 µM (active); with LOX IMVI, 2.24 µM (inactive); in the assay on SN12C, 5.33 µM (inactive); in the assay on EKVX, 4.46 µM (inactive); in the assay on HOP-92, 1.74 µM (inactive). For the same molecule, the GI50 is 4.19 µM (inactive) in the assay on OVCAR-8 and 1.16 µM (inactive) with MOLT-4.
In the case of `CS(=O)(=O)OCCN(CCOS(C)(=O)=O)c1ccc(/C=N/c2cccc(Cl)c2)cc1`, the GI50 in the assay on HCT-15 is 1.02 µM; with SW-620, 12.8 µM (inactive); in the assay on A498, 5.38 µM (inactive); with SF-295, 1.46 µM (inactive); with CCRF-CEM, 1.82 µM (inactive); in the assay with HT-29, 2.69 µM (inactive). In addition, the GI50 is 12.4 µM (inactive) in the assay on Malme-3M; 26 µM (inactive) with Hs-578T; 7.23 µM (inactive) with HOP-62; 2.45 µM (inactive) in the assay on HL-60; 18.2 µM (inactive) in the assay with T47D; 12.1 µM (inactive) in the assay on OVCAR-3. For the same molecule, the GI50 was 0.813 µM (active) in the assay with 786-0; 0.0537 µM (active) in the assay with SR; 1.13 µM (inactive) in the assay on LOX IMVI; 1.4 µM (inactive) with SN12C; 7.36 µM (inactive) in the assay on EKVX; 23.8 µM (inactive) in the assay with HOP-92. The figures for the GI50 in the assay with OVCAR-8 and in the assay on MOLT-4 were 10 µM (inactive) and 0.286 µM (active), respectively.
In the case of `COc1cc(C(=O)N(Cc2cccnc2)C(=S)N(Cc2cccnc2)C(=O)c2cc(OC)c(OC)c(OC)c2)cc(OC)c1OC`, the GI50 in the assay with HCT-15 is 37.7 µM; with SW-620, 32.9 µM (inactive); in the assay with A498 it was 23.2 µM (inactive); in the assay with SF-295 it was > 100 µM (inactive); with CCRF-CEM, 30.3 µM (inactive); with HT-29, 35.4 µM (inactive). Moreover, the GI50 in the assay with Malme-3M was 89.7 µM (inactive); in the assay on Hs-578T, > 100 µM (inactive); in the assay on HOP-62, 37.5 µM (inactive); in the assay on HL-60, 37.2 µM (inactive); with T47D, 34.9 µM (inactive); in the assay with OVCAR-3, 34.4 µM (inactive). The GI50 with 786-0 was 36.2 µM (inactive); with SR, 48.3 µM (inactive); with LOX IMVI it was 30.7 µM (inactive); in the assay with SN12C, 37.9 µM (inactive); in the assay with EKVX it was > 100 µM (inactive); in the assay with HOP-92, 15.1 µM (inactive). For the same molecule, the values for the GI50 in the assay on OVCAR-8 and in the assay on MOLT-4 were 28.7 µM (inactive) and 54.2 µM (inactive), respectively.
With `CC(=O)N1CN2C(=O)CCC2c2ccccc21` (stereo not given), the GI50 was more than 100 µM in the assay with HCT-15; > 100 µM (inactive) with SW-620; > 100 µM (inactive) in the assay with A498; > 100 µM (inactive) with SF-295; > 100 µM (inactive) in the assay with CCRF-CEM; > 100 µM (inactive) with HT-29. Further, the GI50 in the assay on Malme-3M was > 100 µM (inactive); with Hs-578T, > 100 µM (inactive); in the assay on HOP-62, > 100 µM (inactive); in the assay with HL-60, > 10 µM (inactive); in the assay with T47D, > 100 µM (inactive); in the assay on OVCAR-3, > 100 µM (inactive). The GI50 in the assay on 786-0 was > 100 µM (inactive); in the assay on SR, 0.165 µM (active); in the assay with LOX IMVI it was > 100 µM (inactive); in the assay on SN12C, > 100 µM (inactive); in the assay with EKVX it was > 100 µM (inactive); in the assay with HOP-92, > 100 µM (inactive). The GI50 in the assay on OVCAR-8 and with MOLT-4 was > 100 µM (inactive) each time.
With `COCN1CCN=c2c1c1c3c(c4ccccc4n23)CCC1`, the GI50 was more than 100 µM with HCT-15; > 100 µM (inactive) with SW-620; > 100 µM (inactive) in the assay with A498; > 100 µM (inactive) with SF-295; > 100 µM (inactive) with CCRF-CEM; > 100 µM (inactive) in the assay on HT-29. The GI50 in the assay on Malme-3M, in the assay on Hs-578T, in the assay on HOP-62, in the assay with HL-60, in the assay on T47D and with OVCAR-3 was > 100 µM (inactive) throughout. Also, the GI50 in the assay with 786-0, in the assay with SR, in the assay on LOX IMVI, with SN12C, in the assay with EKVX and with HOP-92 was > 100 µM (inactive) in each case. Besides, the GI50 in the assay on OVCAR-8 and in the assay with MOLT-4 was > 100 µM (inactive) in each case.
As to `COc1cc(/C=C2\C(=O)N(c3ccccc3)C(c3ccccc3)S2(=O)=O)cc(OC)c1OC` (stereo not given), the GI50 in the assay with HCT-15 was 37.9 µM; in the assay on SW-620 it was 51.3 µM (inactive); in the assay on A498, > 100 µM (inactive); in the assay on SF-295 it was > 100 µM (inactive); in the assay on CCRF-CEM, 10.6 µM (inactive); in the assay with HT-29, 19.5 µM (inactive). The GI50 is 53.1 µM (inactive) with Malme-3M; 70.3 µM (inactive) in the assay with Hs-578T; 70.6 µM (inactive) in the assay with HOP-62; 7.36 µM (inactive) in the assay with HL-60; 36.1 µM (inactive) with T47D; 36 µM (inactive) with OVCAR-3. Besides, the GI50 in the assay with 786-0 was 69.5 µM (inactive); in the assay with SR, 24.5 µM (inactive); in the assay with LOX IMVI, 31.4 µM (inactive); in the assay with SN12C, 39.4 µM (inactive); with EKVX, 24.2 µM (inactive); in the assay with HOP-92, 33 µM (inactive). Also, the GI50 with OVCAR-8 was 21.3 µM (inactive); with MOLT-4 it was 34 µM (inactive).
`Cc1nc(C)c(N2CCN([N+](=O)[O-])CC2)c(O)n1`: the GI50 with HCT-15 is more than 100 µM; in the assay with SW-620 it was > 100 µM (inactive); in the assay with A498 it was > 100 µM (inactive); in the assay with SF-295 it was > 100 µM (inactive); in the assay with CCRF-CEM, > 100 µM (inactive); in the assay with HT-29, > 100 µM (inactive). Further, the GI50 in the assay with Malme-3M, in the assay with Hs-578T, in the assay with HOP-62, in the assay on HL-60, with T47D and with OVCAR-3 was > 100 µM (inactive) in each case. Besides, the GI50 in the assay with 786-0, in the assay on SR, in the assay with LOX IMVI, in the assay on SN12C, in the assay on EKVX and with HOP-92 was > 100 µM (inactive) throughout. Also, the GI50 with OVCAR-8 and in the assay with MOLT-4 was > 100 µM (inactive) each time.
